# B1: IL-6: recombinant mouse cytokine (protein, UniProt P08505 25-211, looked up)
# Interleukin-6: FPTSQVRRGDFTEDTTPNRPVYTTSQVGGLITHVLWEIVEMRKELCNGNSDCMNNDDALAENNLKLPEIQRNDGCYQTGYNQEICLLKISSGLLEYHSYLEYMKNNLKDNKKDKARVLQRDTETLIHIFNQEVKDLHKIVLPTPISNALLTDKLESQKEWLRTKTIQFILKSLEEFLKVTLRSTRQT
# Experiments:
# U2OS cells [1] = assay: CRT exposure by anti-CRT surface staining and FACS (Example 4); assay type: cell-based, human; conditions: for effect of antioxidant on CRT exposure upon Digoxin and Digitoxin treatment: NAC and GSH pretreated U2OS cells; for CRT exposure: dose dependent fashion, nanomolar range
# Protocol: (D) Cardiac glycosides at 1 μM have been analysed for CRT exposure by means of anti-CRT surface staining and FACS quantification.
# (F) U2OS cells treated with the indicated doses of Digoxin and Digitoxin were analyzed for CRT exposure by means of FACS quantified surface staining.
# U2OS cells [2] = assay type: cell-based
# Protocol: The data is depicted as representative images (A) and (B) normalized Bax-GFP granularity values.
# The data represents mean±s.e.m. of quadruplicates from a representative experiment. […] 16 h after treatment, cell death was monitored by simultaneous staining with 3,3 dihexyloxacarbocyanine iodide (DiOC6(3)) and propidium iodide (PI), and the percentage of dying (DiOC6(3)^low PI^−, open bars) and dead (DiOC6(3)^low PI^+, closed bars) cells was determined by cytofluorometry.
# Cell death was quantified by cytofluorometric analysis using a FACS Vantage (Becton Dickinson, Mountain View, USA) as described previously (REF). Thus, cells were stained with 40 nM 3,3 dihexyloxacarbocyanine iodide (DiOC6(3); Molecular Probes, Eugene, Oreg., USA) for 30 min at 37° C. and concomitantly with 1 μg/ml propidium iodide (PI; Sigma Aldrich) for 30 min at 37° C. to determine the mitochondrial transmembrane potential. Data were statistically evaluated using CellQuest Pro software (Becton Dickinson, Mountain View, USA).
# MCA205 cells [3] = assay: In vivo anti-tumor vaccination with treated MCA205 cells (Example 3); conditions: s.c. injection, rechallenge with live tumor cells
# Protocol: (F) MCA205 cells have been used for tumor vaccination in vivo. […] The mice have been rechallenged after 6 days with living cells and the tumor growth is depicted in the survival plot (n=10).
# Tumor growth was evaluated for at least 50 days.
# U2OS cells [4] = assay: ATP release assays (quinacrine, luciferin-based); assay type: cell-based, human; conditions: 16 h post-treatment, intracellular and extracellular ATP
# Protocol: In short, cells were labeled with 1 μM quinacrine in Krebs-Ringer solution (125 mM NaCl, 5 mM KCl, 1 mM MgSO4, 0.7 mM KH2PO4, 2 mM CaCl2, 6 mM glucose and 25 mM Hepes, pH 7.4) for 30 min at 37° C.
# After incubation in quinacrine solution (as described above), cells were rinsed and resuspended in PBS containing 1 μg/ml PI. The samples were analyzed by means of a FACS Vantage (Becton Dickinson) and the data was statistically evaluated using the CellQuest Pro software (BD Biosciences).
# (§1) After cell death induction, extracellular ATP was measured by luciferin-based ENLITEN ATP Assay (Promega, Madison, USA) following the manufacturer's instructions. Intracellular ATP was measured using an ATP Assay kit (Calbiochem, Darmstadt, Germany) based on luciferin-luciferase conversion following the manufacturer's instructions. For assessment of the chemoluminescent signal, the plates were read in a Fluostar luminometer (BMG Labtech).
# U2OS cells [5] = assay: Analysis of surface exposed CRT (HaloTag ligand, anti-CRT immune staining)
# [6] = tested on: U2OS cells stably expressing CRT-GFP; assay: CRT-GFP redistribution (granularity, nuclear shape) by automated microscopy; ICCB library screen; assay type: cell-based, human
# Protocol: The data is depicted as mean±s.e.m. of quadruplicates from a representative experiment. (C) Immunofluorescene was conducted on CRT-GFP expressing cells by means of staining with anti-CRT antibody and subsequent confocal image acquisition. (D) CRT has been cloned in frame n-terminal to a HaloTag® sequence followed by a KDEL ER retention signal. (E) The impermeable HaloTag® ligand forms covalent bonds exclusively with surface exposed HaloTag®-CRT fusion protein, whereas intracellular HaloTag®-CRT remains undetected.
# Compounds from the ICCB known bioactive compounds library have been tested for their capacity to induce CRT-exposure. […] The cells were incubated for 4 h and were acquired by means of automated microscopy. The data is depicted as dot plots and representative images (B).
# After washing with PBS 4 viewfields per well were acquired by means of a BD pathway 855 automated microscope.
# eIF2α = assay: Immunoblotting of eIF2α / PERK phosphorylation; assay type: cell-based
# Description: (E) The phosphorylation status of eIF2α has been assessed by immunoblotting against the phosphoneoepitope Ser51 of eIF2α by means of a monoclonal antibody. A polyclonal antibody has been used to visualize whole eIF2α protein levels.
# MCA205 cells [7] = conditions: Martins I et al, Oncogene 2010; cited from earlier work
# MCA205 cells [8] = assay: In vivo anti-tumor vaccination with MitoC / Digoxin treated MCA205 cells; parameters: species or system mice; conditions: for vaccination with cells treated with digoxin alone: single treatment
# U2OS cells [9] = assay: ATP release ENLITEN assay (Example 4); assay type: cell-based, human; conditions: 15 h, dose dependent fashion, nanomolar range
# Protocol: (H) ATP release was quantified by ENLITE 15 h after treatment in the supernatant of cells.
# as §1
# breast cancer = assay: Retrospective clinical study, digoxin during chemotherapy; assay type: in vivo, human
# Protocol: (D) D1: Overall survival of 150 breast cancer patients. 50 digoxin cotreated patients are opposed by 100 non digoxin treated controls.
# We retrospectively constructed a patient database using data obtained from Institut Gustave Roussy. The patients were divided into the digoxin receiving and into the control group. For each digoxin receiving patient two control patients with identical tumor grade and chemotherapeutic treatment have been chosen. All digoxin receiving patients were treated with digoxin while receiving chemotherapy. Age at diagnosis, pathological tumor size, lymph node involvement, tumor grade, hormone receptors, endocrine treatments, occurrence of events and follow-up were extracted from medical files and recorded in the database. After generation of the patient database statistical analyses were performed in a blinded fashion. Survival rates were estimated using the Kaplan-Meier method.
# U2OS cells [10] = assay: HMGB1 release ELISA; assay type: cell-based, human; conditions: 24 h, dose dependent fashion, nanomolar range
# Protocol: U2OS cells were seeded in 6 well plates 24 h before the experiment. The medium was changed to fresh DMEM before the treatment was applied. Supernatants were collected at 24 h post treatment, dying tumor cells were removed by centrifugation and supernatants were collected and shock frozen in liquid nitrogen. Quantification of HMGB1 in the collected supernatants was performed by enzyme-linked immunosorbent assay according to the manufacturer's instructions.
# LN resident γδ T cells = assay: Cytokine stimulation of LN-derived γδ T cells (IL-17); assay type: cell-based, mouse
# Protocol: (A-B) Cocultures of naïve LNs derived γδ T (A-B) or TCR δ^−T (A) cells in the presence of recombinant mouse cytokines (1 μg/ml IL-1β or/and IL-23, 5 μg/ml TGF-β, 10 μg/ml IL-6) (A) with or without TCR cross-linking with anti-CD3ε mAb pre-coated plates (5 μg/ml, Clone 145-2C11) (B).
# Naïve C57Bl/6 mice aged between 8-10 weeks were sacrificed and the skin-draining lymph nodes (LNs) including inguinal, popliteal, superficial cervical, axillary and brachial LNs were collected. LNs were squeezed with tweezers gently in digesting buffer, kept at 37° C. for 20 min and then pass through […] cell strainer to get single cell suspension. Dead cells were removed using Dead Cell Removal Kit (Miltenyi Biotec) before purifying γδ T cells with TCRγ/δ^+ T Cell Isolation Kit (Miltenyi Biotec). An autoMACS™ Separator was used with the recommended programs. Purity of this isolation normally reached 95%. The TCR δ^− CD3^+ cells fraction was also collected from the final separation step and was called ‘non γδ T’ cells for some experiments. Day 2 after DX or PBS treatment, 2.5×10^5 cells were injected directly into the tumor with insulin syringes in adoptive transfer setting.
# U2OS cells [11] = assay: US Drug library screen: CRT-GFP, HMGB1-GFP, quinacrine; conditions: 1 μM, 4 h / 24 h / 16 h
# γδ T cells = assay: DC-tumor mixed lymphocyte cultures (IL-1β, IL-17A ELISA); assay type: cell-based, mouse; conditions: 20 μg/ml IL-1RA
# Protocol: (D) DX-treated MCA205 loaded DC/γδ T cell cross-talk was also performed in the presence of 20 μg/ml IL-1RA (Amgen) or anti-IL-23 or IL-23R neutralizing antibodies or 10 μg/ml IL-18BP or 20 μM CH-223191. IL-1β and IL-17A release was measured at 48 hrs in ELISA.
# DC were propagated in Iscoves's medium (Sigma Aldrich) supplemented with J558 supernatant, 100 UI/ml Penicillin, 100 μg/ml Streptomycin, 2 mM L-glutamine, 50 μM 2-mercaptoethanol (Sigma), 10% heat-inactivated and filtered, 10% FCS and 40 ng/ml GM-CSF. DC were used between day 8 and 12 when the proportion of CD11c/MHC class II+ cells was >80%. In mixed cocultures, DC were seeded at 10^5/100 μl/well in U bottom 96 well plates. Tumor cells were treated with 25 μM DX or 2 μM MTX for 16 hrs, washed in PBS and added into these wells at 7.5×10^5/100 μl/well. 2×10^4/50 μl γδ T cells were added into the wells 12 hrs later. Supernatant was collected 48 hrs later.
molecule,measurement,setting,value
CC(=O)N[C@@H](CS)C(=O)O [NAC],effect of antioxidant on CRT exposure upon Digoxin and Digitoxin treatment,U2OS cells [1],significantly diminished CRT exposure
N[C@@H](CCC(=O)N[C@@H](CS)C(=O)NCC(=O)O)C(=O)O [GSH],effect of antioxidant on CRT exposure upon Digoxin and Digitoxin treatment,U2OS cells [1],significantly diminished CRT exposure
"[NH2][Pt]([NH2])([Cl])[Cl] [CDDP, cisplatin]",IC50,"U2OS cells [2]; short-term experiments, loss of the mitochondrial transmembrane potential ΔΨm, read-out: IC50, imminent cell death",~150 µM
same,"mitochondrial perturbations (ΔΨm dissipation, Bax-GFP relocation)",U2OS cells [2]; used at their IC50,induced similar mitochondrial perturbations
same,protective anticancer immune response after vaccination with drug-treated MCA205 cells,MCA205 cells [3],inefficient in inducing a protective anticancer immune response
same,ATP release,U2OS cells [4],induced ATP release
same,surface exposure of CRT-HaloTag,"U2OS cells [5]; cell-impermeable HaloTag ligand, microscopy and cytofluorometry",failed to induce the surface exposure
same,surface immunofluorescence staining of CRT,U2OS cells [5]; non-permeabilized CRT-GFP cells,no immunodetectable CRT was found on the surface
same,CRT-GFP granularity (relocation to peripheral granular distribution),"[6]; 1 μM MTX, 150 μM CDDP, 300 μM OXP",not after treatment with CDDP
same,chromatin condensation (nuclear apoptosis),[6]; as efficiently as MTX or OXP,able to induce chromatin condensation
same,eIF2α phosphorylation on serine 51,eIF2α; phospho-neoepitope-specific antibody,unable to activate
same,activating phosphorylation of PERK,eIF2α; shortly after treatment,not CDDP
tunicamycin,immunogenic cell death when combined with cisplatin,MCA205 cells [7],could induce immunogenic cell death when combined with cisplatin
C[C@H]1O[C@@H](O[C@H]2[C@@H](O)C[C@H](O[C@H]3[C@@H](O)C[C@H](O[C@H]4CC[C@@]5(C)[C@H](CC[C@@H]6[C@@H]5C[C@@H](O)[C@]5(C)[C@@H](C7=CC(=O)OC7)CC[C@]65O)C4)O[C@@H]3C)O[C@@H]2C)C[C@H](O)[C@@H]1O [digoxin],"vaccinating effect, MCA cells cotreated with digoxin and MitoC","MCA205 cells [8]; 20 μM MitoC with 30 μM Digoxin O/N, immunocompetent mice, rechallenge after 6 days",kept living cells of the same kind from forming a tumor
same,vaccination with cells treated with digoxin alone,MCA205 cells [8],led to tumor formation at the vaccination site
same,vaccination with cells treated with digoxin alone,MCA205 cells [8]; listed as Digoxin,did not preclude the living cells from forming a tumor after rechallenge
same,ATP release,U2OS cells [9],ATP release
same,"overall survival effect of digoxin, anthracyclin based chemotherapy subgroup",breast cancer; 20 digoxin cotreated vs 40 controls,completely disappears
same,overall survival of patients that received digoxin during chemotherapy,breast cancer; 50 digoxin cotreated vs 100 controls,increased overall survival
same,HMGB1 release,U2OS cells [10],HMGB1 release
same,CRT exposure,U2OS cells [1],induce CRT exposure
TGF-β,IL-17 production by LN-resident γδ T cells in response to recombinant cytokines,LN resident γδ T cells,failed to produce IL-17
C[C@H]1O[C@@H](O[C@H]2[C@@H](O)C[C@H](O[C@H]3[C@@H](O)C[C@H](O[C@H]4CC[C@@]5(C)[C@H](CC[C@@H]6[C@@H]5CC[C@]5(C)[C@@H](C7=CC(=O)OC7)CC[C@]65O)C4)O[C@@H]3C)O[C@@H]2C)C[C@H](O)[C@@H]1O [digitoxin],ATP release,U2OS cells [9],ATP release
same,HMGB1 release,U2OS cells [10],HMGB1 release
same,CRT exposure,U2OS cells [1],induce CRT exposure
COc1cccc2c1C(=O)c1c(O)c3c(c(O)c1C2=O)C[C@@](O)(C(=O)CO)C[C@@H]3O[C@H]1C[C@H](N)[C@@H](O)[C@H](C)O1 [epirubicin],rank in screen for exposing CRT and emitting HMGB1 and ATP,U2OS cells [11],"most potent in exposing CRT, and emitting HMGB1 and ATP"
IL-1RA: IL-1R1/IL-1β antagonist (Amgen),IL-1β production in DC/γδ T cell co-culture,γδ T cells,not modified
same,DC/γδ T cell cross-talk (IL-17 production) in the presence of dying cells,"γδ T cells; DX-treated MCA205 loaded DC, 48 hrs",entirely abrogated the DC/γδ T cell cross-talk
B1,IL-17 production by LN-resident γδ T cells in response to recombinant cytokines,LN resident γδ T cells,failed to produce IL-17

# — US8865653B2, “Method of treatment for immunogenic treatment resistant cancer” (Institut Gustave Roussy, priority 2010, dated 2014)
